# US20110207119A1, “METHODS FOR PREDICTING A CANCER PATIENT'S RESPONSE TO SUNITINIB” (priority 2010, published 2011)
# System: primary breast carcinoma cultures
# Test: in vitro chemoresponse assay on primary breast carcinoma cultures (DAPI nuclei count, aAUC of dose response curve)
# Format: cell-based
# Conditions: 39 primary breast cancer cultures, single agent, 10 doses 0.108-55.3 μM, 72 hours
# Description: After assay development, thirty-nine primary breast carcinoma cultures were treated with sunitinib at the doses shown in Table 1.
# All specimens treated with the drug were confirmed to contain a majority of epithelial cells (>65%) via immunocytochemistry. A 10-dose range of drug concentrations was used to treat the cell line and breast specimens for 72 hours. After treatment, the cultures were fixed with ethanol, and stained with DAPI. Any cells remaining adherent after treatment were considered live, and the DAPI stained nuclei were counted. The resulting dose response curves were analyzed.
# aAUC values were calculated, essentially as follows:
# (Xi is the normalized cell count of dose i)
structure (smiles),measurement,setting,value
"CCN(CC)CCNC(=O)c1c(C)[nH]c(/C=C2\C(=O)Nc3ccc(F)cc32)c1C [sunitinib, Sunitinib]",share of breast specimens responsive to sunitinib (aAUC of ≦7.85),3 of 39,7.6%
same,share of breast specimens with intermediate response (aAUC of 7.85-9.22),8 of 39,20.5%
same,share of breast specimens non-responsive to the drug (aAUC of ≧9.22),28 of 39,71.7%
